Numbered stars: 1 amine (or outer) side, 2 acyl side, 3 side chain; on linkers, the order of the positions; unused ones are H or OH. Bridge positions count the residues as written; N and C are the ends. Square brackets hold non-standard residues; d marks the D form. Peptide text beside a SMILES is read from it. I, II: the chains in the order shown. Actinocin(9to1) = Cc1c2oc3c(C)ccc(C(=O)[*:1])c3nc-2c(C(=O)[*:2])c(N)c1=O; NMeV = CN[C@H](C(=O)O)C(C)C; Sar = CNCC(=O)O
Experiments:
MT-MMP [1] = assay: Thiopeptolide assay on cultured trabecular meshwork cells (digitonin-permeabilized); assay type: cell-based, Rhesus monkey; conditions: for thiopeptolide assay result versus control CACM: control cells (no Con A), 1 hour preincubation + 24 hours
Description: (§1) The assay of the present invention may be made by first preparing the selected biological sample and assay buffer. To prepare the biological sample, the biological sample such as but not limited to cultured cells were placed in microtiter plates and incubated at approximately 37° C. for up to approximately 96 hours with serum-free, defined medium. A portion of the serum-free, defined medium contained test compounds, while another portion was maintained free of test compounds to serve as controls. In some cases, the biological sample was then processed as a permeabilized “ghost” as described in Example 1 below. The biological sample was then rinsed several times with cold isotonic balanced saline or Tris(hydroxymethyl)aminomethane (TRIS) buffer at pH 7.2 - 7.5. The saline or buffer was then replaced by filter-sterilized, isotonic assay buffer (295 mOsm) consisting of approximately 50 mmol/L N-[2-hydroxyethyl]piperazine-N′-[2-ethane sulfonic acid] (HEPES), approximately 106 mmol/L sodium chloride, approximately 3.5 mmol/L potassium chloride, approximately 5 mmol/L calcium chloride, and approximately 0.02% (v/v) polyoxyethylene 23 lauryl ether (Brij 35) or a similar detergent, final pH approximately 7.5, at approximately room temperature. The Brij 35 was added fresh, and the final mixture was protected from excessive light exposure. The volume of assay buffer for each biological sample was approximately one-half the final assay mixture volume, the other half being made up of the thiopeptolide substrate/thiol reagent solution. For example, when 96-well microtiter plates were employed, the assay mixture volume was approximately 200 microliters.
Next the thiopeptolide substrate/thiol reagent solution was prepared. Preferably, the synthetic thiopeptolide substrate acetyl-prolyl-leucyl-glycyl-[2-mercapto-4-methyl-pentanoyl]-leucyl-glycyl-ethyl ester (Bachem Bioscience, Inc., King of Prussia, Pa.) is used in the solution due to its ready availability. The synthetic thiopeptolide was stored as a 40X, 20 mmol/L stock in DMSO, sealed from light and air, and stored with desiccant at approximately −70° C.. The thiol reagent, 4,4-dithiodipyridine,5,5′-dithio bis(2-nitro-benzoic acid) (DTNB) or the like, but preferably DTNB, was prepared as a 100X, 50 mmol/L stock in DMSO, and stored protected from light with desiccant at approximately room temperature. The combined thiopeptolide and DTNB were both diluted to appropriately 1 mmol/L in assay buffer without Brij 35 to yield a solution that was 2X for both chemicals after thorough mixing. The assay reaction was started when this 2X solution was added in a 1:1 ratio, with thorough mixing, to the assay buffer in which the cells had been equilibrated. The final concentration of both thiopeptolide and DTNB were 0.5 mmol/L.
The assay reaction was then allowed to progress to a suitable endpoint beyond which no further color reaction proceeded, possibly due to product inhibition. This endpoint is usually reached after approximately two hours. During the two hours the samples were gently agitated in an approximately 37° C. humidified incubator. Once the endpoint was reached the microtiter plates were placed into a plate reader and optical density (OD) was measured at 410 nm. Blank values, the OD readings for samples without cells, used to assess non-enzymatic, non-specific hydrolysis of substrate, were then subtracted from all sample OD measurements. The OD measurements taken at 410 nm may be used as a measure of the amount of MT-MMP present on the samples. The effects of experimental conditions on the expression of MT-MMP may then be compared with that of the control samples.
Details of the signal transduction process initiated by Con A culminating in proGelatinase A activation by MT-MMP remained to be elucidated. […]

MT1-MMP [2] = assay: Thiopeptolide assay on HT-1080 cells; assay type: cell-based, Human
Excerpt: The activation of proGelatinase A was shown in the noted Lohi and Stanton work to be inhibitable by tissue inhibitor of [matrix] metalloproteinases-2 (TIMP-2), and by a synthetic hydroxamate inhibitor of MMP's, but not by metalloproteinases-1 (TIMP-1). As additional evidence that the subject assay detects MT1-MMP in human and non-human primate TM cells, the zymographic results of the Lohi and Stanton work were reproduced using the subject assay, using the same methodology as described herein for TM cells, with […] and […].

proGelatinase A [3] = conditions: cited from earlier work; for activation of Gelatinase A from the proenzyme form (zymography): HT-1080, in vitro incubation
MT1-MMP [4] = conditions: HT-1080, in vitro incubation; cited from earlier work
proGelatinase A [5] = assay: Zymography of conditioned medium from cultured TM cells; assay type: cell-based
MT-MMP [6] = assay: Thiopeptolide assay on excised trabecular meshwork from human anterior segment organ culture; assay type: cell-based
Description: as §1
Next the thiopeptolide substrate/thiol reagent solution was prepared. Preferably, the synthetic thiopeptolide substrate acetyl-prolyl-leucyl-glycyl-[2-mercapto-4-methyl-pentanoyl]-leucyl-glycyl-ethyl ester (Bachem Bioscience, Inc., King of Prussia, Pa.) is used in the solution due to its ready availability. The synthetic thiopeptolide was stored as a 40X, 20 mmol/L stock in DMSO, sealed from light and air, and stored with desiccant at approximately −70° C.. […]
The assay reaction was then allowed to progress to a suitable endpoint beyond which no further color reaction proceeded, possibly due to product inhibition. […] Once the endpoint was reached the microtiter plates were placed into a plate reader and optical density (OD) was measured at 410 nm. Blank values, the OD readings for samples without cells, used to assess non-enzymatic, non-specific hydrolysis of substrate, were then subtracted from all sample OD measurements. […]

MT-MMP [7] = assay: Thiopeptolide assay on cultured TM cells with protease inhibitors; assay type: cell-based
Excerpt: Evidence has been presented by Mazzieri, et al., EMBO Journal 16: 2319-2332 (1997) that the urokinase-plasmin system may be in part responsible for activation of proGelatinase A in some cell systems. It was found in studying the subject thiopeptolide assay that a lesser fraction of the subject thiopeptolide assay activity could be inhibited by serine protease inhibitors, which are ineffective with MMP's. However, when these latter inhibitors were employed with TM cells stimulated by Con A, the percentage increase in thiopeptolide assay activity, compared to control cultures, was in fact augmented due to the Con A treatment.

[8] = Con A-treated cells (10 ug/ml), inhibitor 1 hour preincubation, then Con A plus inhibitor 24 hours, Act D 500 ng/ml, CHX 20 ug/ml

Compound | MT-MMP activity in thiopeptolide assay versus control CACM (MT-MMP [1]; [8]) | thiopeptolide assay result versus control CACM (MT-MMP [1]; Act D 500 ng/ml, CHX 20 ug/ml) | activity in thiopeptolide assay following treatment (MT1-MMP [2]) | activation of Gelatinase A from the proenzyme form (zymography) (proGelatinase A [3]) | expression of MT1-MMP (Western immunoblot) (MT1-MMP [4]) | other results
Cc1c2oc3c(C)ccc(C(=O)N[C@@H]4C(=O)N[C@H](C(C)C)C(=O)N5CCC[C@H]5C(=O)N(C)CC(=O)N(C)[C@@H](C(C)C)C(=O)O[C@@H]4C)c3nc-2c(C(=O)N[C@@H]2C(=O)N[C@H](C(C)C)C(=O)N3CCC[C@H]3C(=O)N(C)CC(=O)N(C)[C@@H](C(C)C)C(=O)O[C@@H]2C)c(N)c1=O [Act D, actinomycin D] (I: T[dV]P[Sar][NMeV] / II: T[dV]P[Sar][NMeV]; ester I:1-I:C, II:1-II:C; linker I:N-II:N via Actinocin(9to1)) | slightly, but discernibly, higher than control | not significantly different from control CACM alone | – | – | – | MT-MMP activity in thiopeptolide assay versus control CACM (MT-MMP [1]; Con A for 6 hrs, then Con A plus Act D for 18 hours): slightly, but discernibly, higher than control
C[C@@H]1C[C@@H]([C@H](O)CC2CC(=O)NC(=O)C2)C(=O)[C@@H](C)C1 [CHX, cycloheximide] | not significantly different from control CACM alone | not significantly different from control CACM alone | – | – | – | –
CCCCCCCCCCCCCC(=O)O[C@@H]1[C@@H](C)[C@@]2(O)[C@@H](C=C(CO)C[C@]3(O)C(=O)C(C)=C[C@@H]23)[C@@H]2C(C)(C)[C@]12OC(C)=O [PMA, phorbol 12-myristate 13-acetate] | – | – | Increased activity | activate | increase expression | –
Concanavalin A [Con A] | – | – | Increased activity | activate | increase expression | activation of proGelatinase A (zymography) (proGelatinase A [5]): robust activation; MT-MMP expression over control levels (OD 410 nm, thiopeptolide assay) (MT-MMP [1]; Con A 10 ug/ml in CACM, 24 hours, vs control CACM): more than 200%; OD readings over control (MT-MMP [6]; 100 ug/ml Con A): 200%; OD readings over control (MT-MMP [6]; 30 - 80 ug/ml Con A): approximately 100%; thiopeptolide assay result versus control medium (MT-MMP [6]; Con A below 30 ug/ml): indistinguishable from simply incubating anterior segment quadrants in control medium; threshold Con A concentration for MT-MMP expression in intact TM (MT-MMP [6]; human anterior segment quadrants, 24 + 18 hour incubation): 30 µg/mL
TIMP-1: metalloproteinases-1 (TIMP-1), tissue inhibitor of metalloproteinases | – | – | – | – | – | inhibition of activity increases in thiopeptolide assay (MT-MMP [7]): not; inhibition of activation of proGelatinase A (proGelatinase A [3]; HT-1080, Lohi and Stanton work): not

— patent US20020142362A1, “Colorimetric assay system using thiopeptolide substrate for detection of membrane-type matrix metalloproteinase” (priority 2000, published 2002)
